Measured values from ChEMBL document CHEMBL5729081, “Morpholine derivative” (2022).

Target: hERG (KCNH2) potassium channel (Homo sapiens, UniProt Q12809)
Assay: For electrophysiological measurements cells were seeded onto 35 mm sterile culture dishes containing 2 ml culture medium without Hygromycin B. Cells were cultivated at a density that enabled single cells (without visible connections to neighbouring cells) to be measured. […] The cells were continuously maintained in and passaged in sterile culture flasks containing nutrient mixture F-12 (DMEM/F-12 with L-Glutamine) supplemented with 10% foetal bovine serum and 10% penicillin/streptomycin solution. […] The 35 mm culture dishes upon which cells were seeded at a density allowing single cells to be recorded were placed on the dish holder of the microscope and continuously perfused (at approximately 1 ml/min) with the bath solution (sodium chloride 150 mM, potassium chloride 4 mM, calcium chloride 1.2 mM, magnesium chloride 1 mM, HEPES 10 mM, pH (NaOH) 7.4) at near physiological temperature (36±1° C.). After formation of a Gigaohm seal between the patch electrodes and individual hERG stably transfected CHO cells (pipette resistance range: 2.0 MΩ-7.0 MΩ; seal resistance range: >1 GΩ) the cell membrane across the pipette tip was ruptured to assure electrical access to the cell interior (whole-cell patch-configuration). In case the quality of the seal was poor, the process of seal formation was repeated with a different cell and a new pipette. […] […]
Assay type: cell-based
Details: CHO cells stably expressing the hERG channel, pH 7.4

Sequence of hERG (KCNH2) potassium channel (Q12809 whole entry, the tested form may be a part): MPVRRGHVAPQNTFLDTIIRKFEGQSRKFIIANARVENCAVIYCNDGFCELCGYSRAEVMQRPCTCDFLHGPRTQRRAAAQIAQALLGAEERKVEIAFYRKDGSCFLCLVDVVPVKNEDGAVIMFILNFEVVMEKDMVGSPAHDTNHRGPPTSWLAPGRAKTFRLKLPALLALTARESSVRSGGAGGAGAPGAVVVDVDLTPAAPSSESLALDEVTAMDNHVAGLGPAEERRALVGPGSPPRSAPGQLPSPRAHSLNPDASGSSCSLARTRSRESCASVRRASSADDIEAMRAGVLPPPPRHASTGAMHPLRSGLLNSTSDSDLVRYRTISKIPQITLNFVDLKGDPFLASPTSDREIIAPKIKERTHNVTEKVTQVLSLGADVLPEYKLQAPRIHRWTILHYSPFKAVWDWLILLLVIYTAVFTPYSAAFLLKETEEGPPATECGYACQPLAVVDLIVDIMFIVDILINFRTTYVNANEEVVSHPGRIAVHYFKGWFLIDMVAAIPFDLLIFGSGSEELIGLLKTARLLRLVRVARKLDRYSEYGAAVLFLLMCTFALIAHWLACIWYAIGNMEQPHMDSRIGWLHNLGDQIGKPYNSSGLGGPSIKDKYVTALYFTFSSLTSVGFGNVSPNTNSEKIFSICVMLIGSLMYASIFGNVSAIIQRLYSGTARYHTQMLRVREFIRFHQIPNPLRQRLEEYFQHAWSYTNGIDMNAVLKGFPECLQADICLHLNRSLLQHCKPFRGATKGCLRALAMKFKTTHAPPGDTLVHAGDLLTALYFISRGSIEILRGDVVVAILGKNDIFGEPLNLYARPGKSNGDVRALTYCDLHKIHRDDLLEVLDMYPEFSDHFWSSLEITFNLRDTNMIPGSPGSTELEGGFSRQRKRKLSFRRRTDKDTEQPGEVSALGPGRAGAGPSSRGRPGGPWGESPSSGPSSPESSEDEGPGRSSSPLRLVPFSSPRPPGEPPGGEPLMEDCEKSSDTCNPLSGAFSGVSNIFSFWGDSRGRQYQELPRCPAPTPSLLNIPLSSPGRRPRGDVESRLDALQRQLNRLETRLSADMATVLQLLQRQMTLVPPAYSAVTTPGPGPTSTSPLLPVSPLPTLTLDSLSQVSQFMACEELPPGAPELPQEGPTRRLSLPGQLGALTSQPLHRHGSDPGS

With O=C(Nc1ccc([C@H]2CNCCO2)cc1)c1ccc(Cl)nc1 as the molecule, how does the IC50 read?
Its IC50 is 14.3 µM.
